Tested on: K24384-001-R-PDC complex spheroids, viability
Experiment: Anticancer human tumor K24384-001-R-PDC patient-derived pancreatic adenocarcinoma cell line growth inhibition [GQUAD]
Conditions: for IC50: curve of first compound; for viability, T/C: stronger effect = lower value
Summary of the method: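 Viability of tumor cells grown as complex spheroids with endothelial and stromal cells, exposed to drug combinations. Top concentration at or near clinical Cmax (else 10 microM), diluted in half-log increments.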

[1] = second compound 0.0316 µM, first compound 0.0316 µM
[2] = second compound 0.0316 µM, first compound 0.1 µM
[3] = second compound 0.0316 µM, first compound 0.316 µM
[4] = second compound 0.0316 µM, first compound 1 µM
[5] = second compound 0.0316 µM, first compound 3.16 µM
[6] = second compound 0.0316 µM, first compound 10 µM
[7] = second compound 0.1 µM, first compound 0.0316 µM
[8] = second compound 0.1 µM, first compound 0.1 µM
[9] = second compound 0.1 µM, first compound 0.316 µM
[10] = second compound 0.1 µM, first compound 1 µM
[11] = second compound 0.1 µM, first compound 3.16 µM
[12] = second compound 0.1 µM, first compound 10 µM
[13] = second compound 0.316 µM, first compound 0.0316 µM
[14] = second compound 0.316 µM, first compound 0.1 µM
[15] = second compound 0.316 µM, first compound 0.316 µM
[16] = second compound 0.316 µM, first compound 1 µM
[17] = second compound 0.316 µM, first compound 3.16 µM
[18] = second compound 0.316 µM, first compound 10 µM
[19] = second compound 1 µM, first compound 0.0316 µM
[20] = second compound 1 µM, first compound 0.1 µM
[21] = second compound 1 µM, first compound 0.316 µM
[22] = second compound 1 µM, first compound 1 µM
[23] = second compound 1 µM, first compound 3.16 µM
[24] = second compound 1 µM, first compound 10 µM
[25] = second compound 3.16 µM, first compound 0.0316 µM
[26] = second compound 3.16 µM, first compound 0.1 µM
[27] = second compound 3.16 µM, first compound 0.316 µM
[28] = second compound 3.16 µM, first compound 1 µM
[29] = second compound 3.16 µM, first compound 3.16 µM
[30] = second compound 3.16 µM, first compound 10 µM
[31] = second compound 10 µM, first compound 0.0316 µM
[32] = second compound 10 µM, first compound 0.1 µM
[33] = second compound 10 µM, first compound 0.316 µM
[34] = second compound 10 µM, first compound 1 µM
[35] = second compound 10 µM, first compound 3.16 µM
[36] = second compound 10 µM, first compound 10 µM
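Note: spheroids exposed to compounds for seven days.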

What does the source list for `CC(C)n1c(=O)n(C)c2cnc3cc(F)c(-c4ccc(OCCCN5CCCCC5)nc4)cc3c21` + Cc1cnc(CNC(=O)c2c(=O)c3ccc(N4CCCN(C)CC4)nc3n3c2sc2ccccc23)cn1?
IC50 (second compound 0.0316 µM): > 10000 nM; IC50 (second compound 0.1 µM): > 10000 nM; IC50 (second compound 0.316 µM): > 10000 nM; IC50 (second compound 1 µM): 1880 nM; IC50 (second compound 3.16 µM): < 31.6 nM; IC50 (second compound 10 µM): < 31.6 nM; viability, T/C [1]: 68.1%; viability, T/C [2]: 77%; viability, T/C [3]: 76.9%; viability, T/C [4]: 92.9%; viability, T/C [5]: 99.9%; viability, T/C [6]: 87.7%; viability, T/C [7]: 70.1%; viability, T/C [8]: 84.2%; viability, T/C [9]: 67.1%; viability, T/C [10]: 80.6%; viability, T/C [11]: 83.5%; viability, T/C [12]: 69.3%; viability, T/C [13]: 60.3%; viability, T/C [14]: 81.4%; viability, T/C [15]: 55%; viability, T/C [16]: 62%; viability, T/C [17]: 71.2%; viability, T/C [18]: 52%; viability, T/C [19]: 48.1%; viability, T/C [20]: 52%; viability, T/C [21]: 57.7%; viability, T/C [22]: 51.4%; viability, T/C [23]: 54.6%; viability, T/C [24]: 41.5%; viability, T/C [25]: 44.4%; viability, T/C [26]: 46%; viability, T/C [27]: 46.2%; viability, T/C [28]: 58.4%; viability, T/C [29]: 42%; viability, T/C [30]: 49.7%; viability, T/C [31]: 39%; viability, T/C [32]: 19.4%; viability, T/C [33]: 39.9%; viability, T/C [34]: 46.8%; viability, T/C [35]: 32.8%; viability, T/C [36]: 0.33%

What does the source list for `COc1cccc2c1C(=O)c1c(O)c3c(c(O)c1C2=O)CC(O)(C(=O)CO)CC3OC1CC(N)C(O)C(C)O1` (stereo not drawn) + Cc1cnc(CNC(=O)c2c(=O)c3ccc(N4CCCN(C)CC4)nc3n3c2sc2ccccc23)cn1?
IC50 (second compound 0.0316 µM): 280 nM; IC50 (second compound 0.1 µM): 167 nM; IC50 (second compound 0.316 µM): 85.2 nM; IC50 (second compound 1 µM): < 31.6 nM; IC50 (second compound 3.16 µM): < 31.6 nM; IC50 (second compound 10 µM): < 31.6 nM; viability, T/C [1]: 74.3%; viability, T/C [2]: 62.1%; viability, T/C [3]: 50.3%; viability, T/C [4]: 17.6%; viability, T/C [5]: 5.43%; viability, T/C [6]: 5.41%; viability, T/C [7]: 71.2%; viability, T/C [8]: 55%; viability, T/C [9]: 42.7%; viability, T/C [10]: 18.8%; viability, T/C [11]: 6.08%; viability, T/C [12]: 5.63%; viability, T/C [13]: 58.2%; viability, T/C [14]: 48%; viability, T/C [15]: 33.3%; viability, T/C [16]: 20.6%; viability, T/C [17]: 4.64%; viability, T/C [18]: 6.62%; viability, T/C [19]: 35.4%; viability, T/C [20]: 46.6%; viability, T/C [21]: 35.1%; viability, T/C [22]: 19.4%; viability, T/C [23]: 2.42%; viability, T/C [24]: 3.74%; viability, T/C [25]: 40%; viability, T/C [26]: 44.3%; viability, T/C [27]: 36.1%; viability, T/C [28]: 18.7%; viability, T/C [29]: 0.26%; viability, T/C [30]: 1.49%; viability, T/C [31]: 33.3%; viability, T/C [32]: 25.9%; viability, T/C [33]: 24.4%; viability, T/C [34]: 0.41%; viability, T/C [35]: 0.26%; viability, T/C [36]: 0.2%

`COc1cc(C2c3cc4c(cc3C(OC3OC5COC(C)OC5C(O)C3O)C3COC(=O)C23)OCO4)cc(OC)c1O` (stereo not drawn) + Cc1cnc(CNC(=O)c2c(=O)c3ccc(N4CCCN(C)CC4)nc3n3c2sc2ccccc23)cn1 was tested. Which IC50 (second compound 0.0316 µM) did it give?
The IC50 was 865 nM.

And the IC50 (second compound 0.1 µM)?
Its IC50 is 2380 nM.

What about the IC50 (second compound 0.316 µM) of the same compound?
The IC50 was 31.6 nM.

What about the IC50 (second compound 1 µM) of the same compound?
Its IC50 is < 31.6 nM.

What about the IC50 (second compound 3.16 µM) of the same compound?
The IC50 was < 31.6 nM.

And the IC50 (second compound 10 µM)?
Its IC50 is < 31.6 nM.

What about the viability, T/C [1] of the same compound?
The viability, T/C was 79.9%.

What about the viability, T/C [2] of the same compound?
The viability, T/C was 71.2%.

And the viability, T/C [3]?
The viability, T/C was 99.5%.

And the viability, T/C [4]?
Its viability, T/C is 45.1%.

And the viability, T/C [5]?
Its viability, T/C is 45.3%.

What about the viability, T/C [6] of the same compound?
Its viability, T/C is 25.9%.

And the viability, T/C [7]?
The viability, T/C was 62.1%.

And the viability, T/C [8]?
Its viability, T/C is 68.8%.

And the viability, T/C [9]?
Its viability, T/C is 61.3%.

What about the viability, T/C [10] of the same compound?
The viability, T/C was 57.5%.

What about the viability, T/C [11] of the same compound?
The viability, T/C was 47.8%.

What about the viability, T/C [12] of the same compound?
Its viability, T/C is 34.1%.

And the viability, T/C [13]?
Its viability, T/C is 46.1%.

What about the viability, T/C [14] of the same compound?
Its viability, T/C is 51.4%.

What about the viability, T/C [15] of the same compound?
The viability, T/C was 46%.

And the viability, T/C [16]?
The viability, T/C was 46.4%.

And the viability, T/C [17]?
Its viability, T/C is 52.4%.

What about the viability, T/C [18] of the same compound?
The viability, T/C was 34.8%.

What about the viability, T/C [19] of the same compound?
The viability, T/C was 35.1%.

And the viability, T/C [20]?
Its viability, T/C is 49.1%.

What about the viability, T/C [21] of the same compound?
Its viability, T/C is 38.1%.

And the viability, T/C [22]?
The viability, T/C was 46%.

What about the viability, T/C [23] of the same compound?
The viability, T/C was 43.4%.

What about the viability, T/C [24] of the same compound?
Its viability, T/C is 30.8%.

What about the viability, T/C [25] of the same compound?
The viability, T/C was 36.3%.

And the viability, T/C [26]?
Its viability, T/C is 44.9%.

And the viability, T/C [27]?
Its viability, T/C is 41.2%.

What about the viability, T/C [28] of the same compound?
The viability, T/C was 47.1%.

What about the viability, T/C [29] of the same compound?
Its viability, T/C is 39%.

And the viability, T/C [30]?
The viability, T/C was 26%.

What about the viability, T/C [31] of the same compound?
The viability, T/C was 30.4%.

And the viability, T/C [32]?
The viability, T/C was 28.1%.

What about the viability, T/C [33] of the same compound?
The viability, T/C was 32.3%.

What about the viability, T/C [34] of the same compound?
Its viability, T/C is 33%.

What about the viability, T/C [35] of the same compound?
The viability, T/C was 10.4%.

What about the viability, T/C [36] of the same compound?
Its viability, T/C is 0.63%.

Which results are given for `C=CCn1c(=O)c2cnc(Nc3ccc(N4CCN(C)CC4)cc3)nc2n1-c1cccc(C(C)(C)O)n1` + CN(C)c1ccc(Nc2c3ccc(NC(=O)CCN4CCCC4)cc3nc3cc(NC(=O)CCN4CCCC4)ccc23)cc1?
IC50 (second compound 0.0316 µM): 392 nM; IC50 (second compound 0.1 µM): 266 nM; IC50 (second compound 0.316 µM): 236 nM; IC50 (second compound 1 µM): 275 nM; IC50 (second compound 3.16 µM): 235 nM; IC50 (second compound 10 µM): 229 nM; viability, T/C [1]: 85.5%; viability, T/C [2]: 81%; viability, T/C [3]: 57.3%; viability, T/C [4]: 18%; viability, T/C [5]: 15.9%; viability, T/C [6]: 17.9%; viability, T/C [7]: 76.2%; viability, T/C [8]: 68.9%; viability, T/C [9]: 47%; viability, T/C [10]: 15.6%; viability, T/C [11]: 14%; viability, T/C [12]: 14.8%; viability, T/C [13]: 80.2%; viability, T/C [14]: 86.7%; viability, T/C [15]: 38.6%; viability, T/C [16]: 16.3%; viability, T/C [17]: 12%; viability, T/C [18]: 14.5%; viability, T/C [19]: 76.7%; viability, T/C [20]: 83.3%; viability, T/C [21]: 45.9%; viability, T/C [22]: 19.1%; viability, T/C [23]: 12.2%; viability, T/C [24]: 18%; viability, T/C [25]: 84.2%; viability, T/C [26]: 80.3%; viability, T/C [27]: 39.3%; viability, T/C [28]: 19.3%; viability, T/C [29]: 16.3%; viability, T/C [30]: 13.6%; viability, T/C [31]: 63.5%; viability, T/C [32]: 64.8%; viability, T/C [33]: 44.5%; viability, T/C [34]: 20%; viability, T/C [35]: 16.9%; viability, T/C [36]: 13.1%

From PubChem BioAssay AID2060483 (Molecular Pharmacology Branch, DTP, NCI, 2025)
